Reference: patent publication US20070042020A1, “Composition for the treatment of dysfunctional energy metabolism syndrome” (priority 2003, published 2007)

Test system: old Labrador Retriever dog that had difficulty in standing and walking
Test: Exercise ability (walking distance) of a dog under cofactor supplementation
Assay type: in vivo
Description: When L-carnitine, acetyl-L-carnitine, with added pantothenate at 0.4 mg/kg body weight were supplemented for one week, exercise ability increased to 2740 yards and, by three weeks, ability was 3807 yards. However, when pantothenate was eliminated for two weeks, exercise ability declined to 350 yards. Then when pantothenate was returned to the L-carnitine and acetyl-L-carnitine combination, his exercise capability returned to more than 3800 yards. This case illustrates the contribution of the various cofactors to physical activity.

## C[N+](C)(C)C[C@H](O)CC(=O)[O-] [L-carnitine]
After one week of L-carnitine at 5 mg/kg body weight, 340 yards before
  distance it could walk: 1240 yards

## CC(=O)O[C@H](CC(=O)[O-])C[N+](C)(C)C [acetyl-L-carnitine]
After two weeks of acetyl-L-carnitine at 4 mg/kg body weight and no L-carnitine
  exercise ability (distance walked): 648 yards
